Experimental data reported in patent US20090186868A1, “Taxane Compound Having Azetidine Ring Structure” (Daiichi Sankyo Company Limited, priority 2005, published 2009).
Values after ≈ are worked out from the molar mass of the structure shown. Where two headings read alike, the source gives them in different places.

What was measured:
B16 melanoma BL6 = test: Antitumor effect in mice subcutaneously transplanted with B16 melanoma BL6; format: in vivo, Mice (C57BL/6); details: for Therapeutic index: MTD/MED; for Effective dose range: range from MED to MTD, antitumor effect of 58% or more considered effective
Description: (§1) Mice (C57BL/6, Charles River Japan) were subcutaneously transplanted with B16 melanoma BL6 (Cancer Res., Poste, G., Fidler, I. J. et al., 1980, 40:1636; Bioorg. Med. Chem. Lett., Takeda, Y. et al., 2003, 13:185-190), or M5076 (obtained from Japanese Foundation for Cancer Research), which is a histiocytoma expressing P-gp. Four days after the transplantation in the case of B16 melanoma BL6, or 8 to 10 days after the transplantation in the case of M5076, each test compound suspended in a 0.5% aqueous solution of carboxymethylcellulose sodium, or dissolved in EtOH:Tween 80:5% glucose=5:5:90 (v/v %) was orally (po) or intravenously (iv) administered to the mice. Ten days after the administration in the case of B16 melanoma BL6, or 8 to 10 days after the administration in the case of M5076, the mice were dissected, and tumor weights were measured. The antitumor effect was calculated in accordance with the following equation.
(§2) [1−(Average tumor weight of compound administration group/average tumor weight of solvent administration group)]×100
(§3) An antitumor effect of 58% or more was considered effective (Int. J. Cancer, 1989, 43:637-44), and the maximum tolerance dose (MTD, maximum dose not causing death, mg/kg) and minimum effective dose (MED, mg/kg) showing effectiveness were obtained, respectively. The therapeutic index was calculated in accordance with the equation: MTD/MED.
(§4) ND means that the test was not performed. The effective dose range means the range of from MED to MTD.

[1] = Solubility in first and second solution for disintegration test (Japanese Pharmacopoeia); format: physicochemical; details: for solubility: thermodynamic from solid
Experimental: Solubility of each compound was determined in the first solution for disintegration test according to Japanese Pharmacopoeia (henceforth referred to as the first solution, solution obtained by adding 7 mL of hydrochloric acid and water to 2.00 g of sodium chloride to dissolve sodium chloride and fill up the solution to 1000 mL, pH 1.2) and the second solution for disintegration test according to Japanese Pharmacopoeia (henceforth referred to as the second solution, solution obtained by adding 118 mL of 0.2 mol/L solution of sodium hydroxide to 6.80 g of potassium dihydrogenphosphate, adding water to the mixture to dissolve potassium dihydrogenphosphate and filling up the solution to 1000 mL, pH 6.8).
Each test compound was dissolved in 100% dimethyl sulfoxide (DMSO) at a concentration of 10 mM, and 50 μL of the solution was lyophilized. The lyophilized test compound was added with 250 μL of the first solution or second solution, and the mixture was stored at room temperature for 12 hours or longer under light shielding, and filtered (0.7 μm). The filtrate was taken in a volume of 90 μL, and added with 50% DMSO (90 μL) to obtain a two-fold diluted solubility sample. The two-fold dilution solubility sample was taken in a volume of 20 μL, and added with 50% DMSO (180 μL) to obtain a […] diluted solubility sample. Solubility of each test sample was determined by quantifying the test compound in the resulting diluted solubility test samples using high-performance liquid chromatography.

[2] = tested on: M5076 (histiocytoma expressing P-gp); test: Antitumor effect in mice subcutaneously transplanted with M5076; format: in vivo, Mice (C57BL/6); details: for Therapeutic index: MTD/MED; for Effective dose range: range from MED to MTD, antitumor effect of 58% or more considered effective
Description: as §1, §2, §3, §4

[3] = aqueous buffer, second solution for disintegration test, pH 6.8, room temperature, 12 hours or longer, read-out: Solubility (μg/mL) pH 6.8
[4] = simulated gastric fluid, first solution for disintegration test, pH 1.2, room temperature, 12 hours or longer, read-out: Solubility (μg/mL) pH 1.2
[5] = first solution for disintegration test, pH 1.2, room temperature, 12 hours or longer
[6] = second solution for disintegration test, pH 6.8, room temperature, 12 hours or longer

Structure (SMILES): CC(=O)O[C@@]12CO[C@@H]1CC[C@@]1(C)[C@@H]3O[C@H](CN4CC(C(=O)N(C)C)C4)O[C@@H]3C3=C(C)[C@@H](OC(=O)[C@H](O)[C@@H](NC(=O)OC(C)(C)C)c4ccccn4)C[C@@](O)([C@@H](OC(=O)c4ccccc4)[C@@H]12)C3(C)C [Example 9, (1S,2S,3R,4S,5R,8R,9S,10R,13S)-4-(Acetoxy)-2-(benzoyloxy)-9,10-{(1S)-[2-(3-dimethylcarbamoyl)azetidino]ethylidenedioxy}-5,20-epoxy-1-hydroxytax-11-en-13-yl (2R,3S)-3-(tert-butoxycarbonylamino)-2-hydroxy-3-(2-pyridyl)propionate]
- Therapeutic index (B16 melanoma BL6; B16 Melanoma BL6, po): 6.0
- solubility [1, 3]: 130 µg/mL (≈ 137 µM)
- solubility [1, 4]: 1400 µg/mL (≈ 1480 µM)

Structure (SMILES): CC(=O)O[C@@]12CO[C@@H]1CC[C@@]1(C)[C@@H]3O[C@H](CN4CC(C)(O)C4)O[C@@H]3C3=C(C)[C@@H](OC(=O)[C@H](O)[C@@H](NC(=O)OC(C)(C)C)c4ncccc4F)C[C@@](O)([C@@H](OC(=O)c4ccccc4)[C@@H]12)C3(C)C [Example 12, (1S,2S,3R,4S,5R,8R,9S,10R,13S)-4-(Acetoxy)-2-(benzoyloxy)-5,20-epoxy-1-hydroxy-9,10-[(1S)-2-(3-hydroxy-3-methylazetidino)ethylidenedioxy]tax-11-en-13-yl (2R,3S)-3-(tert-butoxycarbonylamino)-3-(3-fluoro-2-pyridyl)-2-hydroxypropionate]
- Therapeutic index (B16 melanoma BL6; B16 Melanoma BL6, po): 4.1
- solubility [1, 3]: 92 µg/mL (≈ 99.6 µM)
- solubility [1, 4]: 1100 µg/mL (≈ 1190 µM)

Structure (SMILES): CC(=O)O[C@@]12CO[C@@H]1CC[C@@]1(C)[C@@H]3O[C@H](CN4CC[C@H]4CO)O[C@@H]3C3=C(C)[C@@H](OC(=O)[C@H](O)[C@@H](NC(=O)OC(C)(C)C)c4ccccn4)C[C@@](O)([C@@H](OC(=O)c4ccccc4)[C@@H]12)C3(C)C [Example 21, (1S,2S,3R,4S,5R,8R,9S,10R,13S)-4-(Acetoxy)-2-(benzoyloxy)-5,20-epoxy-1-hydroxy-9,10-{(1S)-2-[(2S)-2-hydroxymethylazetidino]ethylidenedioxy}tax-11-en-13-yl (2R,3S)-3-(tert-butoxycarbonylamino)-2-hydroxy-3-(2-pyridyl)propionate]
- Therapeutic index (B16 melanoma BL6; B16 Melanoma BL6, po): 5.9
- solubility [1, 3]: 150 µg/mL (≈ 166 µM)
- solubility [1, 4]: > 1000 µg/mL

Structure (SMILES): CC(=O)O[C@@]12CO[C@@H]1CC[C@@]1(C)[C@@H]3O[C@H](CN4CC[C@H]4CO)O[C@@H]3C3=C(C)[C@@H](OC(=O)[C@H](O)[C@@H](NC(=O)OC(C)(C)C)c4ncccc4F)C[C@@](O)([C@@H](OC(=O)c4ccccc4)[C@@H]12)C3(C)C [Example 22, (1S,2S,3R,4S,5R,8R,9S,10R,13S)-4-(Acetoxy)-2-(benzoyloxy)-5,20-epoxy-1-hydroxy-9,10-{(1S)-2-[(2S)-2-hydroxymethylazetidino]ethylidenedioxy}tax-11-en-13-yl (2R,3S)-3-(tert-butoxycarbonylamino)-3-(3-fluoro-2-pyridyl)-2-hydroxypropionate]
- Therapeutic index (B16 melanoma BL6; B16 Melanoma BL6, iv): 6.0
- Therapeutic index (B16 melanoma BL6; B16 Melanoma BL6, po): 4.2
- solubility [1, 3]: 85 µg/mL (≈ 92 µM)
- solubility [1, 4]: 1100 µg/mL (≈ 1190 µM)
- Therapeutic index ([2]; M5076, iv): 2.0
- Effective dose range ([2]; M5076, iv): 12.0 to 24.5 mg/kg
- Therapeutic index ([2]; M5076, po): 2.0
- Effective dose range ([2]; M5076, po): 17.2 to 35 mg/kg

Structure (SMILES): CC(=O)O[C@@]12CO[C@@H]1CC[C@@]1(C)[C@@H]3O[C@H](CN4CC[C@H]4C(=O)N(C)C)O[C@@H]3C3=C(C)[C@@H](OC(=O)[C@H](O)[C@@H](NC(=O)OC(C)(C)C)c4ccccn4)C[C@@](O)([C@@H](OC(=O)c4ccccc4)[C@@H]12)C3(C)C [Example 23, (1S,2S,3R,4S,5R,8R,9S,10R,13S)-4-(Acetoxy)-2-(benzoyloxy)-9,10-{(1S)-2-[(2S)-2-(dimethylcarbamoyl)azetidino]ethylidenedioxy}-5,20-epoxy-1-hydroxytax-11-en-13-yl (2R,3S)-3-(tert-butoxycarbonylamino)-2-hydroxy-3-(2-pyridyl)propionate]
- Therapeutic index (B16 melanoma BL6; B16 Melanoma BL6, po): 2.9
- solubility ([1]; pH 1.2, simulated gastric fluid): 1400 µg/mL (≈ 1480 µM)
- solubility ([1]; pH 6.8, aqueous buffer): 360 µg/mL (≈ 380 µM)

Structure (SMILES): CC(=O)O[C@@]12CO[C@@H]1CC[C@@]1(C)[C@@H]3O[C@H](CN4CC(S(C)(=O)=O)C4)O[C@@H]3C3=C(C)[C@@H](OC(=O)[C@H](O)[C@@H](NC(=O)OC(C)(C)C)c4ncccc4F)C[C@@](O)([C@@H](OC(=O)c4ccccc4)[C@@H]12)C3(C)C [Example 28, (1S,2S,3R,4S,5R,8R,9S,10R,13S)-4-(Acetoxy)-2-(benzoyloxy)-5,20-epoxy-1-hydroxy-9,10-{(1S)-2-[3-(methanesulfonyl)azetidino]ethylidenedioxy}tax-11-en-13-yl (2R,3S)-3-(tert-butoxycarbonylamino)-3-(3-fluoro-2-pyridyl)-2-hydroxypropionate]
- Therapeutic index (B16 melanoma BL6; B16 Melanoma BL6, po): 4.2
- solubility [1, 3]: 18 µg/mL (≈ 18.5 µM)
- solubility [1, 4]: 1300 µg/mL (≈ 1340 µM)

Structure (SMILES): CC(=O)O[C@@]12CO[C@@H]1CC[C@@]1(C)[C@@H]3O[C@H](CN4CCC4)O[C@@H]3C3=C(C)[C@@H](OC(=O)[C@H](O)[C@@H](NC(=O)OC(C)(C)C)C(F)F)C[C@@](O)([C@@H](OC(=O)c4ccccc4)[C@@H]12)C3(C)C [Example 31, (1S,2S,3R,4S,5R,8R,9S,10R,13S)-4-(Acetoxy)-9,10-[(1S)-2-(azetidino)ethylidenedioxy]-2-(benzoyloxy)-5,20-epoxy-1-hydroxytax-1′-en-13-yl (2R,3R)-3-(tert-butoxycarbonylamino)-4,4-difluoro-2-hydroxybutyrate]
- Therapeutic index (B16 melanoma BL6; B16 Melanoma BL6, iv): 2.9
- Effective dose range (B16 melanoma BL6; B16 Melanoma BL6, iv): 3.43 to 10.0 mg/kg
- Therapeutic index (B16 melanoma BL6; B16 Melanoma BL6, po): 2.0
- Effective dose range (B16 melanoma BL6; B16 Melanoma BL6, po): 8.82 to 18.0 mg/kg
- Solubility (μg/mL) pH 1.2 [1, 5]: 1000 μg/mL
- Solubility (μg/mL) pH 6.8 [1, 6]: 160 μg/mL
- Therapeutic index ([2]; M5076, iv): 1.0
- Effective dose range ([2]; M5076, iv): 10.0 mg/kg

Structure (SMILES): CC(=O)OC12COC1CCC1(C)C3OC(CN4CCC4)OC3C3=C(C)C(OC(=O)C(O)C(CF)NC(=O)OC(C)(C)C)CC(O)(C(OC(=O)c4ccccc4)C12)C3(C)C [Example 34, (1S,2S,3R,4S,5R,8R,9S,10R,13S)-4-(Acetoxy)-9,10-[(1S)-2-(azetidino)ethylidenedioxy]-2-(benzoyloxy)-5,20-epoxy-1-hydroxytax-11-en-13-yl (2R,3R)-3-(tert-butoxycarbonylamino)-4-fluoro-2-hydroxybutyrate]
- Therapeutic index (B16 melanoma BL6; B16 Melanoma BL6, iv): 4.2
- Effective dose range (B16 melanoma BL6; B16 Melanoma BL6, iv): 10.1 to 42.0 mg/kg
- Solubility (μg/mL) pH 1.2 [1, 5]: 830 μg/mL
- Solubility (μg/mL) pH 6.8 [1, 6]: 310 μg/mL

Structure (SMILES): CC(=O)O[C@@]12CO[C@@H]1CC[C@@]1(C)[C@@H]3O[C@H](CN4CCC4)O[C@@H]3C3=C(C)[C@@H](OC(=O)[C@H](O)[C@@H](NC(=O)OC(C)(C)C)c4nccs4)C[C@@](O)([C@@H](OC(=O)c4ccccc4)[C@@H]12)C3(C)C [Example 40, (1S,2S,3R,4S,5R,8R,9S,10R,13S)-4-(Acetoxy)-9,10-[(1S)-2-(azetidino)ethylidenedioxy]-2-(benzoyloxy)-5,20-epoxy-1-hydroxytax-11-en-13-yl (2R,3R)-3-(tert-butoxycarbonylamino)-2-hydroxy-3-(2-thiazolyl)propionate]
- Therapeutic index (B16 melanoma BL6; B16 Melanoma BL6, iv): 4.2
- solubility [1, 3]: 150 µg/mL (≈ 170 µM)
- solubility [1, 4]: 1000 µg/mL (≈ 1130 µM)
